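Compound exposure: 48 hours, 5 concentrations, 96-well plates. GI50 is the concentration that inhibits growth by half. TGI is the concentration that stops growth completely.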
Tests used:
Test in all cases: NCI tumour cell line growth inhibition, 48 h
SK-MEL-2 melanoma = system: SK-MEL-2 melanoma
TK-10 renal = system: TK-10 renal
M14 melanoma = system: M14 melanoma
OVCAR-5 ovarian = system: OVCAR-5 ovarian
U251 CNS = system: U251 CNS
MALME-3M melanoma = system: MALME-3M melanoma
HCC-2998 colon = system: HCC-2998 colon
HOP-62 NSCLC = system: HOP-62 NSCLC
KM12 colon = system: KM12 colon
MOLT-4 leukemia = system: MOLT-4 leukemia

Structure (SMILES)	GI50 (SK-MEL-2 melanoma) [µM]	TGI (SK-MEL-2 melanoma) [µM]	GI50 (TK-10 renal) [µM]	TGI (TK-10 renal) [µM]	GI50 (M14 melanoma) [µM]	TGI (M14 melanoma) [µM]	GI50 (OVCAR-5 ovarian) [µM]	TGI (OVCAR-5 ovarian) [µM]	GI50 (U251 CNS) [µM]	TGI (U251 CNS) [µM]	GI50 (MALME-3M melanoma) [µM]	TGI (MALME-3M melanoma) [µM]	GI50 (HCC-2998 colon) [µM]	TGI (HCC-2998 colon) [µM]	GI50 (HOP-62 NSCLC) [µM]	TGI (HOP-62 NSCLC) [µM]	GI50 (KM12 colon) [µM]	TGI (KM12 colon) [µM]	GI50 (MOLT-4 leukemia) [µM]	TGI (MOLT-4 leukemia) [µM]
CCc1nn2ncccc2c1-c1ccnc(NC2CC2)n1	> 25	> 25	> 25	> 25	> 25	> 25	> 25	> 25	> 25	> 25	> 25	> 25	> 25	> 25	> 25	> 25	> 25	> 25	> 25	> 25
COc1cc(Nc2ncnc(Nc3ccc4c(n3)NC(=O)C(C)(C)O4)n2)cc(OC)c1OC	> 100	> 100	0.457	> 100	5.15	> 100	0.602	> 100	1.5	> 100	8.69	> 100	> 100	> 100	0.555	> 66.5	0.395	> 100	5.24	> 100
CC1=C(C(=O)Nc2ccccc2)C(c2cc(Cl)cc(Cl)c2)C(C(=O)Nc2ccccc2)=C(C)N1	–	25.8	–	33.6	–	27.8	–	39	–	12.9	–	27.9	–	25.7	–	31.1	–	16.8	–	18.1
Cc1c(C)c2c(c(C)c1OCC(=O)O)CC[C@@](C)(CCC[C@@H](C)CCC[C@@H](C)CCCC(C)C)O2	64.4	142	85.6	154	41.1	114	86.3	155	52.7	133	66.5	130	102	224	62.2	161	63.3	173	50.4	202
CCOC(=O)C1=C(C(=O)OCC)C2(c3ccccc3)N(O1)c1ccccc1C2(C)C (stereo not drawn)	–	> 100	–	> 100	–	> 100	–	> 100	–	> 100	–	> 100	–	> 100	–	> 100	–	> 100	–	> 100
O=C1C=C(Nc2ccc(S(=O)(=O)Nc3ncccn3)cc2)c2ccccc2C1=O	–	85.2	–	> 100	–	34.1	–	34.4	–	31.5	–	43.9	–	36.6	–	54.6	–	38.6	–	> 100
COc1cc(CN(c2ccc(C)cc2)C2OC(=O)c3ccccc32)cc(OC)c1OC (stereo not drawn)	0.487	> 100	2.51	> 100	0.43	> 100	1.58	> 100	0.397	> 100	–	> 100	0.877	> 31.2	0.627	> 67.4	0.445	> 100	0.908	> 100
COC(=O)N/N=C(\C)C(CN(C)C)C(c1ccccc1)c1c(O)c2ccccc2oc1=O (stereo not drawn)	–	> 100	–	> 100	–	> 100	–	> 100	–	> 100	–	> 100	–	> 100	–	> 100	–	> 100	–	> 100
C[C@H](NC(=O)c1c(C(F)F)nn(C)c1Oc1cccc(C(F)(F)F)c1)c1ccc(C(=O)O)cc1	> 100	> 100	> 100	> 100	> 100	> 100	> 100	> 100	> 100	> 100	> 100	> 100	> 100	> 100	> 100	> 100	> 100	> 100	> 100	> 100
CCC[CH2][Sn]([CH2]CCC)([O]C(=O)c1cccc(F)c1F)[O]C(=O)c1cccc(F)c1F	0.41	1.46	1.72	3.11	1.4	2.77	1.88	3.28	0.675	1.93	0.585	1.89	1.63	2.98	2.94	4.5	1.52	2.85	0.336	2.04
c1ccc(C2CC(c3ccc4ccccc4c3)=Nc3ccccc3S2)cc1 (stereo not drawn)	–	34.6	–	37.8	–	31.2	–	37.6	–	31	–	35.8	–	24.8	–	38.2	–	38.8	–	> 100
COc1ccc2c(c1)CCc1c(CO)c(COC(=O)NC(C)C)n(C)c1-2	–	58	–	> 100	–	33.8	–	> 100	–	35.8	–	16.2	–	51.5	–	75.6	–	28.2	–	8.57
N#C/C(=C\c1ccccc1)C(NO)Nc1ccccc1 (stereo not drawn)	–	> 100	–	> 100	–	> 100	–	> 100	–	> 100	–	> 100	–	> 100	–	> 100	–	> 100	–	> 100
CC1=C(C#N)C(/C=C(\Cl)c2ccc(F)cc2)C(C#N)=C(C)N1	> 100	> 100	> 100	> 100	> 100	> 100	> 100	> 100	> 100	> 100	> 100	> 100	> 100	> 100	> 100	> 100	> 100	> 100	> 100	> 100
CCN(CC)c1ccc(/C=N/NC(=O)CSc2nc3ccccc3c(=O)n2Cc2ccc(S(N)(=O)=O)cc2)c(O)c1	2.41	> 100	1.66	> 100	0.452	10.9	2.09	> 100	0.51	> 100	1.09	> 100	0.882	> 100	0.961	> 100	0.569	> 100	0.372	> 100
NC(CSC(c1ccccc1)(c1ccccc1)c1ccc(F)cc1)C(=O)O (stereo not drawn)	1.95	–	13.3	> 100	0.402	> 100	4.18	> 76.5	0.374	> 60.5	2.39	> 100	0.438	11.5	3.04	> 85.6	0.405	20.7	1.37	> 46.9
CCc1nc2cc(/C=C/C(=O)NO)ccc2c(=O)n1CCc1ccc(OC)cc1	3.66	24.9	1.6	5.79	2.88	10.4	2.5	30	1.99	4.87	1.53	8.28	4.06	62.1	2.45	7.68	3.42	> 100	2.5	> 100

— PubChem BioAssay (NCI)
